Measured values published in patent US12036226B2, “Methods of treating subjects having diabetes with chronic kidney disease” (Poxel SA, priority 2018, dated 2024).
Where two headings read alike, the source gives them in different places.

Experiment: Daily steady-state exposure (AUC24,ss) in a Phase 2b clinical study
Format: in vivo
Details: human, plasma, oral, 1500 mg, 1500 mg BID treatment arm
Description: In addition, predicted daily steady-state exposures (AUC24,ss) for doses of 500 mg BID, 1500 mg QD, and 1000 mg BID in T2DM subjects with CKD stage 3B or 4 in a Phase 1b study were estimated using parameters from the population PK model; the mean AUC24,ss values and standard deviations are shown in FIG. 10. For reference, the mean AUC24,ss and standard deviation from a Phase 2b clinical study is also included in FIG. 10; the mean AUC24,ss in the 1500 mg BID treatment arm in that study was 36.5 μg·hr/mL (the AUC24,ss range was 10.1 to 169.3 μg·hr/mL). At each of the three dose levels, significant overlap in exposure between T2DM subjects with CKD3B and T2DM subjects with CKD4 was predicted as evidenced by the overlap of standard deviation bars between CKD3B and CKD4 subjects at each dose level.

## C[C@H]1N=C(N(C)C)N=C(N)N1 [imeglimin, (6R)—N^2, N^2,6-trimethyl-3,6-dihydro-1,3,5-triazine-2,4-diamine]
read-out: AUC24,ss range
  AUC: 10100 to 169000 ng·h/mL
read-out: mean AUC24,ss
  AUC: 36500 ng·h/mL
